Assay results as given in ChEMBL document CHEMBL1268917, “Synthesis and biological evaluation of radio-iodinated benzimidazoles as SPECT imaging agents for NR2B subtype of NMDA receptor” (Bioorg Med Chem, 2010).

How the values were obtained:
[1] = biological target: Glutamate receptor ionotropic, NMDA 2B (Rattus norvegicus, UniProt Q00960); test: Displacement of [3H]ifenprodil from NR2B receptor in rat cortical synaptic membranes; assay type: cell membranes, Membrane
[2] = Octanol-buffer partition coefficient, log D of the compound at pH 7.4; assay type: physicochemical

Sequence of Glutamate receptor ionotropic, NMDA 2B (Q00960 whole entry): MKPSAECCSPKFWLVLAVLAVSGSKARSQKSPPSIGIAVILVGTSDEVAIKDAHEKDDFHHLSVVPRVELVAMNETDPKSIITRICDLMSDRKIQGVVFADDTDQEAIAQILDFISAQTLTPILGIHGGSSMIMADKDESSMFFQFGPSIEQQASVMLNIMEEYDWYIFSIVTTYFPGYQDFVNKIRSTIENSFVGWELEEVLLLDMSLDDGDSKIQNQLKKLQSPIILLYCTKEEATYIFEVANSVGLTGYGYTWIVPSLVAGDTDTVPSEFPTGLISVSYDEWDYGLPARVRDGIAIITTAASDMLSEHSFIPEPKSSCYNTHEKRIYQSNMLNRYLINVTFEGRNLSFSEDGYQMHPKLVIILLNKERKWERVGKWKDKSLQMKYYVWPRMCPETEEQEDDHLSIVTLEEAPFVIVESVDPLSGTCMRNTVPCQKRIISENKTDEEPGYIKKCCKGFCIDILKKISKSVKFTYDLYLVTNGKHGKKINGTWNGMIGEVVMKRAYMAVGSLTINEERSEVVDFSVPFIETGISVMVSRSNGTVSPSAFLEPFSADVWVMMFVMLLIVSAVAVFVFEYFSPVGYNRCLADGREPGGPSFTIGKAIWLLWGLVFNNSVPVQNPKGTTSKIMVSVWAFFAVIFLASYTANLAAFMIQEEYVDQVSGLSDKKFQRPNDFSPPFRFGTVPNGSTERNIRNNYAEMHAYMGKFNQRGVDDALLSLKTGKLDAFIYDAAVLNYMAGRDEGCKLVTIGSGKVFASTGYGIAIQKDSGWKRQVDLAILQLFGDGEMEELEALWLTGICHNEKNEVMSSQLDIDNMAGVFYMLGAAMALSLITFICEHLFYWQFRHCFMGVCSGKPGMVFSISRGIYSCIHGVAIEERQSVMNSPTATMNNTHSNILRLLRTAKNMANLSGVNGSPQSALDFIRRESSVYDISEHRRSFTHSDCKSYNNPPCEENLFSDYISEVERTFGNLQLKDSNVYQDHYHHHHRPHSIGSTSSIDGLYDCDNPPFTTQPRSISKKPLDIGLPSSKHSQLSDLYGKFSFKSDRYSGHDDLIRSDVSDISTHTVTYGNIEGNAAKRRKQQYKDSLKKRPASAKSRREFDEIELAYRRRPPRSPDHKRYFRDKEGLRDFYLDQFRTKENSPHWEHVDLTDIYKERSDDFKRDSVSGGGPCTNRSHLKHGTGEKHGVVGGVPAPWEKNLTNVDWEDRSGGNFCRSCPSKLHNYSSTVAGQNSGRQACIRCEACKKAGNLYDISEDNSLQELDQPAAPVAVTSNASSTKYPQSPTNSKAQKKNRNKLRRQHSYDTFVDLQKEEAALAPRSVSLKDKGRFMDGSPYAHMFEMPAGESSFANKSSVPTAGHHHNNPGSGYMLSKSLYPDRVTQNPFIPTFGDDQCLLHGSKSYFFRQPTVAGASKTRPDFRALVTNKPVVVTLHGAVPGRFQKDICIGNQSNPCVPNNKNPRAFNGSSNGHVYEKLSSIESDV

Ki [1] [nM] | logD [2] | SMILES
32.5 | 3.74 | Oc1ccc2nc(CN3CCC(Oc4ccc(I)cc4)CC3)[nH]c2c1
3.09 | – | Oc1ccc2nc(CN3CCC(Cc4ccccc4)CC3)[nH]c2c1
